Measured values: patent US8846746B2, “Pyrazole compound and pharmaceutical use thereof” (Japan Tobacco Inc., priority 2011, dated 2014)

target: human SGLT1 (Homo sapiens (Human), UniProt P13866); experiment: SGLT1 inhibitory activity: 14C-AMG uptake into CHO-K1 cell line stably expressing human SGLT1; format: cell-based; conditions: 14C-AMG uptake, CHO-K1 cells stably expressing human SGLT1
Procedure, shortened: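 CHO-K1 cells stably expressing human SGLT1 were pre-incubated 20 min in Na(−) buffer (pH 7.4). Test compound in Na(+) buffer with BSA was added with ¹⁴C-AMG (8 kBq) plus unlabelled AMG (2 mM in the added solution) for 1 h at 37 °C.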

human SGLT1, sequence (P13866 whole entry): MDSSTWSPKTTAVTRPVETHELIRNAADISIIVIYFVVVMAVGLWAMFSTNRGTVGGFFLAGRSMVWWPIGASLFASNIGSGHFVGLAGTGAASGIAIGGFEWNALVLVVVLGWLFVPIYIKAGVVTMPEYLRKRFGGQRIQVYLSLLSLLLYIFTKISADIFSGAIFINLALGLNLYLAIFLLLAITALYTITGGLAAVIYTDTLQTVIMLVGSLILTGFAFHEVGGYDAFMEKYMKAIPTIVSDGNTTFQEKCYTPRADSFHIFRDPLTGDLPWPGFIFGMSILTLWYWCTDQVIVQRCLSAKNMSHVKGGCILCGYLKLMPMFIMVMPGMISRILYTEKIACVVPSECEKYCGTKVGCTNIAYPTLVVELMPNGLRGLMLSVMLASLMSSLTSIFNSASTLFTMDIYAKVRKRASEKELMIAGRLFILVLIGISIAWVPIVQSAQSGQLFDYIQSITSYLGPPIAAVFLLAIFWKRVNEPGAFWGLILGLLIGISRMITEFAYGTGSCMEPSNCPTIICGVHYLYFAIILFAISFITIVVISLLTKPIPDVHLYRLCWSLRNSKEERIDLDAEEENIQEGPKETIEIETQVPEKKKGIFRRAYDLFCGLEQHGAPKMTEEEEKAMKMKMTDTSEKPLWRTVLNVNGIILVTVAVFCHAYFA

Row | SMILES | IC50 [nM]
1 | CC(C)(OCc1cccc(-c2cc(NC(=O)[C@@H]3CNC(=O)C3)nn2-c2ccc(F)cc2)c1)C(F)(F)F [Example 574] | 17
2 | C[C@@H](OCc1cc(Cl)cc(-c2cc(NC(=O)[C@@H]3CNC(=O)C3)nn2-c2cccc(F)c2)c1)C(F)(F)F [Example 578] | 8.5
3 | O=C1C[C@H](C(=O)Nc2cc(-c3cc(Cl)cc(COC(C(F)(F)F)C(F)(F)F)c3)n(-c3ccccc3)n2)CN1 [Example 579] | 23
4 | CC(C)(OCc1cc(F)cc(-c2cc(NC(=O)[C@@H]3CNC(=O)C3)nn2-c2ccc(Cl)cc2)c1)C(F)(F)F [Example 580] | 7.6
5 | CC(C)(OCc1cc(Cl)cc(-c2cc(NC(=O)[C@@H]3CNC(=O)C3)nn2-c2ccc(F)cc2)c1)C(F)(F)F [Example 581] | 12
6 | C[C@@H](OCc1cc(Cl)cc(-c2cc(NC(=O)[C@@H]3CNC(=O)C3)nn2C2CCOCC2)c1)C(F)(F)F [Example 584] | 84
7 | O=C1C[C@H](C(=O)Nc2cc(-c3cc(Cl)cc(COCC(F)(F)F)c3)n(-c3ccccc3)n2)CN1 [Example 586] | 46
8 | O=C1C[C@H](C(=O)Nc2cc(-c3cc(Cl)cc(COCC(F)(F)F)c3)n(-c3ccc(F)cc3)n2)CN1 [Example 589] | 55
9 | C[C@@H](OCc1cccc(-c2cc(NC(=O)[C@H]3CNC(=O)N3)nn2-c2ccc(Cl)cc2)c1)C(F)(F)F [Example 590] | 13
10 | CC(C)(OCc1cc(Cl)cc(-c2cc(NC(=O)[C@H]3CNC(=O)N3)nn2-c2ccccc2)c1)C(F)(F)F [Example 594] | 66
11 | CC(C)(OCc1cc(F)cc(-c2cc(NC(=O)[C@H]3CNC(=O)N3)nn2-c2ccc(F)cc2)c1)C(F)(F)F [Example 602] | 28
12 | CC(C)(OCc1cc(F)cc(-c2cc(NC(=O)[C@H]3CNC(=O)N3)nn2-c2ccc(Cl)cc2)c1)C(F)(F)F [Example 603] | 16

Second part, the compound after the results:

Row | IC50 [nM] | SMILES
13 | 60 | C[C@@H](OCc1cc(Cl)cc(-c2cc(NC(=O)[C@H]3CNC(=O)N3)nn2-c2ccccc2)c1)C(F)(F)F [Example 597]
14 | 47 | C[C@@H](OCc1cc(Cl)cc(-c2cc(NC(=O)[C@H]3CNC(=O)N3)nn2-c2ccc(F)cc2)c1)C(F)(F)F [Example 598]
15 | 41 | CC(C)(OCc1cc(Cl)cc(-c2cc(NC(=O)[C@H]3CNC(=O)N3)nn2-c2ccc(F)cc2)c1)C(F)(F)F [Example 600]
16 | 40 | O=C1C[C@H](C(=O)Nc2cc(-c3cc(Cl)cc(COCC(F)(F)F)c3)n(-c3ccccc3F)n2)CN1 [Example 587]
17 | 40 | O=C1C[C@H](C(=O)Nc2cc(-c3cc(Cl)cc(COCC(F)(F)F)c3)n(-c3cccc(F)c3)n2)CN1 [Example 588]
18 | 35 | O=C1NC[C@H](C(=O)Nc2cc(-c3cc(F)cc(COCC(F)(F)F)c3)n(-c3ccc(Cl)cc3)n2)N1 [Example 596]
19 | 31 | CC(C)(OCc1cc(F)cc(-c2cc(NC(=O)[C@H]3CNC(=O)N3)nn2-c2ccccc2)c1)C(F)(F)F [Example 601]
20 | 27 | CC(C)(OCc1cccc(-c2cc(NC(=O)[C@H]3CNC(=O)N3)nn2-c2ccc(Cl)cc2)c1)C(F)(F)F [Example 599]
21 | 19 | O=C1C[C@H](C(=O)Nc2cc(-c3cccc(COC(C(F)(F)F)C(F)(F)F)c3)n(-c3ccc(Cl)cc3)n2)CN1 [Example 576]
22 | 13 | O=C1C[C@H](C(=O)Nc2cc(-c3cc(F)cc(COC(C(F)(F)F)C(F)(F)F)c3)n(-c3ccccc3)n2)CN1 [Example 585]
23 | 12 | CC(C)(OCc1cccc(-c2cc(NC(=O)[C@@H]3CNC(=O)C3)nn2-c2ccc(Cl)cc2)c1)C(F)(F)F [Example 575]
24 | 10 | CC(C)(OCc1cc(F)cc(-c2cc(NC(=O)[C@@H]3CNC(=O)C3)nn2-c2ccc(F)cc2)c1)C(F)(F)F [Example 595]
25 | 6.7 | C[C@@H](OCc1cc(Cl)cc(-c2cc(NC(=O)[C@@H]3CNC(=O)C3)nn2-c2ccccc2F)c1)C(F)(F)F [Example 577]

same assay, conditions: CHO-K1, at 0.1 uM

Row | SMILES | inhibition at 0.1 µM [%]
26 | C[C@@H](OCc1cccc(-c2cc(NC(=O)[C@@H]3CNC(=O)C3)nn2C2CCOCC2)c1)C(F)(F)F [Example 582] | 47
27 | C[C@@H](OCc1cc(F)cc(-c2cc(NC(=O)[C@@H]3CNC(=O)C3)nn2C2CCOCC2)c1)C(F)(F)F [Example 583] | 48
